Measurements published in PMC9096165 (Frontiers in Pharmacology, 2022).

Columns and labels:
F11 cells = assay: F11 cell viability (CellTiter AQueous One); assay type: cell-based; settings: differentiated F11 cells, 24 h, 0.1 to 5 µM
Experimental: For these experiments, cells at 18th passage were used.
[…] Cell viability was determined using the colorimetric method CellTiter AQueous One Solution Cell Proliferation Assay (Promega Corporation, United States), as previously reported ([Brandolini et al., 2017]). The quantity of formed formazan, as a function of viability, was measured at 492 nm using an ELISA plate reader, Infinite F200 (Tecan, Männedorf, Swiss). The results from five independent experiments were expressed as absorbance at 492 nm.

urinary bladder = assay type: in vivo; settings: preventive: 20 mg kg^−1 + 7 mg kg^−1 twice daily for 7 days; CYP rats
Experimental: CYP was administered to the animals by the intraperitoneal (i.p.) route (5 ml kg^−1) at the dosage of 75 mg kg^−1 for three times every third day to elicit chronic bladder irritation, as previously described ([Vizzard et al., 1996]).
(§1) Animals pre-treated with the vehicle or a single high oral dose of DF2755A (20 mg kg^−1; 12 h before the first CYP administration) followed by repeated lower doses administration (7 mg kg^−1 twice daily for 7 days) during IC development were deeply anesthetized with isoflurane (4%) and then killed.
After killing, rat abdomen was opened through a midline incision, and bladder and proximal urethra were exposed. A catheter was inserted into the bladder through the urethra and a loose ligature was placed around the neck of the urinary bladder. Bladder was inflated with saline via the catheter to slightly distend the bladder and ligature was tightened to maintain proper distension. Bladder was then excised cutting above the insertion point of ureters, and therefore the bladder neck was not included into the bladder sample. Bladders were opened using scissors and, after gross macroscopic evaluation and weighing, each bladder was cut into two equal pieces (named B1 and B2) and weighted again individually. One piece (B1) was placed in Eppendorf, then snap-frozen in liquid nitrogen, and stored at −80°C until quantification using ELISA assay. The second piece (B2) was placed in 10% formalin and stored at room temperature. Then the same samples were placed in 70% ethanol, then processed in paraffin blocks, and then trimmed according to the longitudinal plane to ensure the correct analysis of all the bladder sample. Sections were stained with hematoxylin and eosin (HE), and slides were then digitalized using a Pathscan® Touch scanner in the bright field mode with a ×20 objective. For the microscopic observations of bladder inflammation, the following parameters were analyzed: bladder edema in scores (n = 10/group), bladder hemorrhage in scores (n = 10/group), urothelial loss in scores (n = 10/group), and total inflammatory score, which was calculated by adding all the individual lesion scores (n = 10/group).

CXCL1/KC = assay: CXCL1 ELISA in bladder tissue; assay type: in vivo, rat; settings: preventive: 20 mg kg^−1 + 7 mg kg^−1 twice daily for 7 days, CYP rats
Experimental: as §1
After killing, rat abdomen was opened through a midline incision, and bladder and proximal urethra were exposed. A catheter was inserted into the bladder through the urethra and a loose ligature was placed around the neck of the urinary bladder. Bladder was inflated with saline via the catheter to slightly distend the bladder and ligature was tightened to maintain proper distension. Bladder was then excised cutting above the insertion point of ureters, and therefore the bladder neck was not included into the bladder sample. […] One piece (B1) was placed in Eppendorf, then snap-frozen in liquid nitrogen, and stored at −80°C until quantification using ELISA assay. […] For the microscopic observations of bladder inflammation, the following parameters were analyzed: bladder edema in scores (n = 10/group), bladder hemorrhage in scores (n = 10/group), urothelial loss in scores (n = 10/group), and total inflammatory score, which was calculated by adding all the individual lesion scores (n = 10/group). […]

TRPV1 = TRPV1 Western blotting in bladder homogenates; assay type: in vivo, rat; settings: preventive: 20 mg kg^−1 + 7 mg kg^−1 twice daily for 7 days; Western blot, CYP rats
Experimental: as §1
After killing, rat abdomen was opened through a midline incision, and bladder and proximal urethra were exposed. A catheter was inserted into the bladder through the urethra and a loose ligature was placed around the neck of the urinary bladder. Bladder was inflated with saline via the catheter to slightly distend the bladder and ligature was tightened to maintain proper distension. […] One piece (B1) was placed in Eppendorf, then snap-frozen in liquid nitrogen, and stored at −80°C until quantification using ELISA assay. […] For the microscopic observations of bladder inflammation, the following parameters were analyzed: bladder edema in scores (n = 10/group), bladder hemorrhage in scores (n = 10/group), urothelial loss in scores (n = 10/group), and total inflammatory score, which was calculated by adding all the individual lesion scores (n = 10/group).
Protease and phosphatase inhibitors were added to the bladder homogenates extracted. […] The extracted proteins were quantified using BCA assay (Thermo, United States). […]

With `C[C@H](C(=O)[O-])c1ccc(Nc2nc(C(F)(F)F)cs2)cc1.[Na+]` [DF2755A, sodium (2S)-2-(4-{[4-(trifluoromethyl)-1,3-thiazol-2-yl]amino}phenyl)propanoate] the neuronal cell viability (F11 cells) was “did not modulate neuronal cell viability”, the “histological evaluated parameters (edema, hemorrhage, urothelial loss, total inflammatory score), DF2755A- versus vehicle-treated rats” value (urinary bladder) was “no significant difference” and the “bladder tissue expression of CXCL1/KC versus vehicle-treated rats” value (CXCL1/KC) was “strongly inhibited”. For the same compound, the “TRPV1 bladder expression versus vehicle-treated animals” value (TRPV1) was “reduced”.
